In patent publication US20230174571A1, “METHOD OF TREATING SHIP1-MEDIATED DISEASES USING PELOROL DERIVATIVES” (Zebrapeutics Inc., priority 2020, published 2023):

Assays:
SHIP1 and STAT3 [1] = molecular target: T1, SHIP1 and STAT3 (Mus musculus, UniProt Q9ES52); test: In vitro pull down assay of His6-SHIP1 with STAT3; type: cell-based; conditions: J17 His6-SHIP1 cells; 100 ng/ml IL10 or IL6, 20 μM compound I-2; 5 minutes
T1 construct: expressed in transfected cells; host or cells: J17 (SHIP1-/- mouse BMDM-derived line), lentiviral transduction
T1 sequence (Q9ES52 1-1191): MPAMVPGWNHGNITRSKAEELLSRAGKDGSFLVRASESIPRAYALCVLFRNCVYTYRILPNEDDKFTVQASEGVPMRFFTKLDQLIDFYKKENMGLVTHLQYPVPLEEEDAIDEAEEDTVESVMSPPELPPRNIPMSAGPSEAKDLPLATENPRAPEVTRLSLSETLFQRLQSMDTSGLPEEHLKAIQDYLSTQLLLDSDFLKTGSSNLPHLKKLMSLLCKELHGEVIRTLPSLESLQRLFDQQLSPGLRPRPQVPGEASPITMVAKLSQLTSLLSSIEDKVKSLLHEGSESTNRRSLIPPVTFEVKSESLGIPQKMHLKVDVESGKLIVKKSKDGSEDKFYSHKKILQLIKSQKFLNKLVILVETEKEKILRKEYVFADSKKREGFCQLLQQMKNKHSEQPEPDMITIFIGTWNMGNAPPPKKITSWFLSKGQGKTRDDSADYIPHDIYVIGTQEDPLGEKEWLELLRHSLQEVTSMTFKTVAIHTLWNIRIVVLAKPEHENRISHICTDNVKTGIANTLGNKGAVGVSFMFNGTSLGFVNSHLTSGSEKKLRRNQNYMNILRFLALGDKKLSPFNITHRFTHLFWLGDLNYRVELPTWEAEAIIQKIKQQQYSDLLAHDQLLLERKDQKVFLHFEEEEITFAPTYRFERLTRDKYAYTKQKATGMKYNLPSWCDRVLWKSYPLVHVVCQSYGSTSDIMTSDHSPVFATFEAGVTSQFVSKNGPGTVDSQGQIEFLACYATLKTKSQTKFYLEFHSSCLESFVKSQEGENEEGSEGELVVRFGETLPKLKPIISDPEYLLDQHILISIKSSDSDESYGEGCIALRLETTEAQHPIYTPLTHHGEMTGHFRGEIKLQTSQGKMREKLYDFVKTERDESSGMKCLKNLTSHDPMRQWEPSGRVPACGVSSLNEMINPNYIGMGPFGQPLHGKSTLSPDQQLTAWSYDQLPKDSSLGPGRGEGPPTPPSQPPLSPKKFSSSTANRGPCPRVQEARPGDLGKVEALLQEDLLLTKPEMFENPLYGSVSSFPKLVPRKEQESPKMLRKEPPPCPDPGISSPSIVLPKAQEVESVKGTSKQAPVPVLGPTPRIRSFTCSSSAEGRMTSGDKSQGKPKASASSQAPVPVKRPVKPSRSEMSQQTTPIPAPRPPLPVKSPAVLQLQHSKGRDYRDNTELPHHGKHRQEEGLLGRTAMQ
Procedure: In vitro pull down assay. J17 His6-SHIP1 and Y190F cells were seeded at 2×10^6 cells per well in a 6-well plate. After overnight incubation, fresh cell media was added for 30 minutes before stimulation with 100 ng/ml IL10, […] or 20 μM compound I-2 for 5 minutes. Cells were lysed with Protein Solubilization Buffer (PSB, 50 mM Hepes, pH 7.5, […], 10 mM Na Pyrophosphate, 2 mM NaVO4, 2 mM Na Molybdate, 2 mM EDTA) containing 1% octylglucoside, 0.01 M imidazole, and protease inhibitor cocktail (Roche Diagnostics, Laval, QC) for 30 minutes at 4° C. and centrifuged at 10000 rpm for 15 minutes. EDTA resistant Ni beads (Roche Diagnostics, Laval, QC) were added to supernatants and the mixture incubated at 4° C. for 1 hour before spinning down and washing of beads three times with 0.1% octylglucoside wash buffer in PSB. Bead samples and starting material cell lysates were separated on a 7.5% SDS-PAGE gel.
Immunoblotting. Protein lysates were separated on SDS-PAGE gels and transferred onto polyvinylidene fluoride (PVDF) membrane (Millipore, Etobicoke, ON). Membranes were blocked and probed, where appropriate, with the following primary antibodies overnight: SHIP1 (P1C1) (Santa Cruz Biotechnology), pSHIP1 (Y190) (Kinexus), STAT3 (9D8) (ThermoFisher Scientific), pSTAT3 (Y705) (Thermo Fisher Scientific), STAT1 (BD Transduction Laboratories), pSTAT1 (Y701) (Upstate Biotechnology), GAPDH and actin (Sigma-Aldrich). Membranes were developed with either Alexa Fluor® 660 anti-mouse IgG or Alexa Fluor® 680 anti-rabbit IgG antibodies (Thermo Fisher Scientific) and imaged using a LI-COR Odyssey Imager.

SHIP1 and STAT3 [2] = molecular target: T1, SHIP1 and STAT3; test: Immunofluorescence of SHIP1 and STAT3 subcellular localization in peritoneal macrophages; type: cell-based; conditions: for membrane association of SHIP1 and STAT3 / nuclear localization of SHIP1 and STAT3: wild-type perimacs, 100 ng/ml IL10 or 20 μM I-2; for membrane association of SHIP1 and STAT3: 2 min; for nuclear localization of SHIP1 and STAT3: 20 min
Procedure: Isolation of mouse peritoneal macrophages. Primary peritoneal macrophages (perimacs) were isolated from mice by peritoneal lavage with 3 ml of sterile Phosphate Buffered Saline (PBS) (Thermo Fisher Scientific, Nepean, ON). Perimacs were collected and transferred to Mac media.
Immunofluorescence. Perimacs were seeded at 3×10^5 cells per well in 18-well Ibidi p-Slides (Ibidi GmbH, Martinsried, Germany) and allowed to adhere for 3 hours before washing with PBS to remove non-adherent cells. CD8+ T cells were seeded at 2×10^6 cells in 12-well tissue culture plates. Cells were stimulated with either 100 ng/ml IL10 or 20 μM compound I-2 for 2 or 20 minutes followed by 3×PBS washes and fixing of cells in 4% paraformaldehyde for 15 minutes at room temperature. Cells were incubated with anti-mouse CD16/CD32 Fc Block (BD Pharmingen) for 1 hour followed by an overnight incubation at 4° C. with either anti-SHIP1 antibody (P1C1) (Santa Cruz Biotechnology) or anti-STAT3 antibody (9D8) (ThermoFisher Scientific). Cells were then incubated with anti-mouse IgG (H+L)-Alexa Fluor 660 secondary antibody (ThermoFisher Scientific) for 1 hour, followed by, for perimacs, anti-CD11b-FITC antibody (BD Pharmingen) for 30 minutes. CD8+ T cells were mounted onto 18-well Ibidi p-Slides prior to confocal microscopy and cells were stored in Ibidi Mounting Media supplemented with ProLong Gold antifade reagent with DAPI (Molecular Probes, Life Technologies). Cells were imaged on a Leica SP5II on DM6000 confocal microscope with a 63×/1.4-0.6 Oil PL APO objective using 405, 488 and 633 nm laser lines for excitation. Final images were scanned sequentially acquiring eight Z-stacks with a frame-average of four. Co-localization analysis was performed using ImageJ software by first combining individual z-stack confocal images then performing deconvolution and co-localization using CUDA deconvolution and JACoP plugins respectively. Pearson's coefficient values were produced as a measurement of the degree of overlap between SHIP1 or STAT3 with CD11b (for Perimacs) or DAPI.

Compound | association (co-precipitation) of SHIP1 and STAT3 (SHIP1 and STAT3 [1]) | mimicry of IL10 with respect to SHIP1 and STAT3 translocations (SHIP1 and STAT3 [2]; peritoneal macrophages) | membrane association of SHIP1 and STAT3 (SHIP1 and STAT3 [2]) | nuclear localization of SHIP1 and STAT3 (SHIP1 and STAT3 [2])
Cc1cc(O)cc2c1C1(C)CCC3C(C)(C)CCCC3(C)C1C2 (centres unmarked) [Compound I-1] | could by itself induce formation of a SHIP1/STAT3 complex | can mimic IL10 |  | 
CC12CCC3C(C)(C)C(N)CCC3(C)C1Cc1cc(O)cc(O)c12 (centres unmarked) [Compound I-2] | sufficient to induce association of SHIP1 and STAT3 |  | induced membrane association of both SHIP1 and STAT3 | both SHIP1 and STAT3 are found in the nucleus
IL10: anti-inflammatory cytokine interleukin-10 | resulted in co-precipitation of SHIP1 with STAT3 |  | induced membrane association of both SHIP1 and STAT3 | both SHIP1 and STAT3 are found in the nucleus
